Measured values published in patent US5424441A, “N-aralkyl-and N-heteroaralkyl-aminoalkanephosphinic acids” (Ciba-Geigy Corporation, priority 1994, dated 1995).

Test system: "epileptic-like" discharges from pyramidal cells
Assay: penicillin-induced "epileptic" hippocampus section preparation, electrophysiological model in vitro
Format: cell-based
Conditions: read-out: concentration at which "epileptic-like" discharges from pyramidal cells are inhibited

Question: With `NCC(CC(=O)O)c1ccc(Cl)cc1` (stereo not shown) [baclofen] as the compound, how does the minimal effective concentration read?
Answer: 6 µM
